This is an account of results in US7910750B2, “Artemisinin (qinghaosu) derivatives, their preparation methods and their use, and pharmaceutical compositions containing the same” (Shanghai Institute of Materia Medica, Chinese Academy of …, priority 2005, dated 2011).

Converted amounts (≈) assume the structure as drawn. Read-outs that look alike come from different tables or passages of the source.

Data set [1] deals with BALB/c mouse spleen cells. Put plainly: Lymphocytotoxicity test (MTT). Type of data set: cell-based. To be noted: 48 hours. As for the experimental part:
(§1) A. Lymphocytotoxicity Test
(§2) 1. BALB/c mice were killed by cervical dislocation, and their spleens were removed aseptically. A single spleen cell suspension was prepared and cell debris and clumps were removed.
(§3) 2. 80 μL cell suspension, 40 μL testing sample, 40 μL medium containing 10% FBS were added into 96 well plate; for the control group, 80 μL medium was added the total volume was 160 μL, and blank control group was set.
(§4) 3. After incubated in 5% CO2 incubator at 37° C. for 48 hours, 16 μL MTT (5 mg/mL) reagent was added into each well 6-7 hours before the termination of the incubation.

Another data set deals with T lymphocyte. Kind of data set: Lymphocyte proliferation test, T lymphocyte proliferation response induced by ConA ([3H]-thymidine). Type of data set: cell-based, mouse. To be noted: 48 hours. On the procedure: B. Lymphocyte Proliferation Test […] […] 3. After incubated in 5% CO2 incubator at 37° C. for 48 hours, 0.5 μCi [^3H]-thymidine (25 μL/well) was added into each well 7-8 hours before the termination of the incubation. 4.

In the next data set the test system is B lymphocyte. Kind of data set: Lymphocyte proliferation test, B lymphocyte proliferation response induced by LPS ([3H]-thymidine). It is filed as cell-based, mouse. Particulars: 48 hours. On the procedure:
3. After incubated in 5% CO2 incubator at 37° C. for 48 hours, 0.5 μCi [^3H]-thymidine (25 μL/well) was added into each well 7-8 hours before the termination of the incubation. 4.

Data set [2] relates to BALB/c mouse spleen cells and C57BL/6 mouse spleen cells. On the procedure:
C. Mixed Lymphocyte Reaction (MLR)
1. C57BL/6 and BALB/c mice were killed by cervical dislocation, their spleens were removed aseptically, and a single spleen cell suspension was prepared. After the red blood cells were removed, the cell concentration was adjusted to 4×10^6/mL with RPMI-1640 medium containing 10% FBS.
2. The spleen cells of C57BL/6 mice were response cells, and the spleen cells of BALB/c mice (irradiated with Co60, 3000 rads) were stimulator cells, the two kinds of cells were mixed with equal volumes.
3. 100 μL mixed cell suspension, 100 μL test sample were added into a 96-well plate; for the control group, 100 μL medium containing 10% serum was added, and single culture controls of the two kinds of cells were set.
4. Incubated in 5% CO2 incubator at 37° C. for 3, 4 or 5 days. 25 μL ^3H dilution (i.e. […] [^3H]-thymidine) was added 1 day before the termination of the incubation.
5. The incubation was terminated, the plate was freezed in a −20° C. refrigerator.
6. The cells were harvested with a cell harvestor ([…]96®, TOMTEC) on a glass fiber film, the incorporation of [^3H]-thymidine in DNA was detected with a liquid scintillation counter (MicroBeta Trilux®, PerkinElmer), which reflected the state of cell proliferation.

In the next data set the test system is IFN-γ. To be noted: for production of cytokine IFN-γ: 24 hours. On the procedure: (§5) D. Induction and Detection of Cytokine
(§6) 1. BALB/c mice were killed by cervical dislocation, their spleens were removed aseptically, and a single spleen cell suspension was prepared. After the red blood cells were removed, the cell concentration was adjusted to 5×10^6/mL with RPMI-1640 medium containing 10% FBS.
(§7) 2. 1 mL cell suspension, 0.5 mL test sample and 0.5 mL ConA (final concentration 5 μg/mL) or Sac (Staphylococcus aureus thallus containing staphylococcus protein A) (final concentration 0.01%) were added into […]; for the control group, 0.5 mL medium containing 10% FBS was added, the final volume was 2 mL.
(§8) 3. Incubated in 5% CO2 incubator at 37° C. for 24 or 48 hours, the supernatant was collected and freezed in −20° C. refrigerator, the cytokines was to be detected.
(§9) 4. Production of cytokines was detected with a double antibody sandwich enzyme linked immunosorbent assay (ELISA). TMB was used as substrate of the enzyme reaction, and the OD values was measured with a microplate reader at 450 nm. The production amount of cytokines of the samples was calculated according to the standard curve.

Another data set relates to IL-12. To be noted: for production of cytokine IL-12: 24 hours. As for the experimental part: as §5, §6, §7, §8, §9
In another data set the test system is IL-2. Particulars: stimulator ConA, 24 hours. As for the experimental part:
as §5, §6, §7, §8, §9

For a further data set, the system named is IL-6. Particulars: for production of cytokine IL-6: 24 hours. As for the experimental part:
as §5, §6, §7, §8, §9

A further data set relates to TNF-α. To be noted: stimulated with PMA; dose dependent. As for the experimental part:
as §5, §6, §7, §8, §9

Data set [3] has as its system BALB/c mice. Particulars: ear swelling.
Experimental: Each rear paw of BALB/c mice (female, 6-8 weeks old) was sensitized with 20 μL 0.5% DNFB (2,4-dinitrofluorobenzene) on day 0, and was reinforced next day (DNFB was dissolved in an oil agent [acetone:olive oil=4:1]);
Inside and outside of left ear of the mice were challenged with 10 μL 0.4% DNFB at day 7-9;
The test sample was administrated once 1 hour before challenge by i.p. injection or intragastric adminatration. After 12 hours, administered again;
24-48 hours after challenge, each index was measured.
Note: For BALB/c mice (female, 6-8 weeks old), the concentration of sensitizing agent was 0.7%, the concentration of challenging agent was 0.6%.
The test system of data set [4] is BALB/c mice. To be noted: administered in vivo, BALB/c mice immunized with sheep red blood cells.
Experimental: F. Production of Anti Sheep Red Blood Cell Specific Antibody of Mouse B Cells
Fresh sheep red blood cells (SRBC) were washed 3 times with PBS (pH7.2), and diluted by 1:20;
Fresh serum of guinea pig was diluted by 1:10;
2×10^7/mL of mouse spleen cell suspension was prepared;
Each 1 mL of the above three solutions was mixed and incubated at 37° C. for 1.5 hours, then is centrifuged with 2500 rpm×15 min. OD value was measured at 520 nM.
BALB/c mice were sensitized 3 days after administration: the sheep red blood cells were washed 3 times with saline, and the SRBC pressed volume was diluted by a rate of 5%. Each mouse was intraperitoneally injected with 0.2 mL, and dissected to take its spleen 6 days after sensitization. And the production amount of the antibodies was measured.
Another data set has as its system SD rats. Particulars: intraperitoneally injected.
Data set [5] can be described thus: Lymphocytotoxicity test (MTT). Type of data set: cell-based, mouse. To be noted: BALB/c, primary spleen cells (splenic mononuclear cells), mouse spleen cells. As for the experimental part:
as §1, §2, §3, §4

The mark [6] stands for this setting: SM735 10−^5 Mol/L, stimulator LPS.
[7] abbreviates: SM735 10−^5 Mol/L, stimulator PMA + Ion.
[8] abbreviates: SM735 10−^6 Mol/L, stimulator LPS.
Setting [9] is: SM735 10−^6 Mol/L, stimulator PMA + Ion.
Where [10] appears, read: SM735 10−^7 Mol/L, stimulator LPS.
Setting [11] is: SM735 10−^7 Mol/L, stimulator PMA + Ion.

For the molecule `CC1CCC2C(C)C(Oc3cccc(OC(CC(=O)O)C(=O)O)c3)OC3OC4(C)CCC1C32OO4` (stereo not drawn) [compound 3, 3-(12β-artemisininoxy)phenoxy succinic acid], in data set [1] (BALB/c mouse spleen cells), the “cytotoxicity CC50” value was determined as 27 µg/mL. Besides, the CC50 (commonly the concentration that lowers cell viability or growth by half) amounted to 53100 ± 7800 nM in [1] (BALB/c mouse spleen cells, mean ± standard error, read-out: cytotoxicity CC50) and 52700 nM in data set [1] (mouse spleen cells, read-out: Lymphocytotoxicity CC50). The “IC50, T lymphocyte proliferation response induced by ConA” value with T lymphocyte came to 0.13 µg/mL (≈ 0.264 µM). Also, the IC50 in the data set on T lymphocyte (mean ± standard error, read-out: IC50, proliferation of spleen cells induced by ConA) turned out to be 330 ± 60 nM; in the data set with T lymphocyte (mouse spleen cells, ConA, read-out: Inhibiting activity of T lymphocyte proliferation response induced by ConA IC50), 327 nM; in the data set with B lymphocyte (mean ± standard error, read-out: IC50, proliferation of spleen cells induced by LPS), 270 ± 20 nM; in the data set on B lymphocyte (mouse spleen cells, LPS, read-out: Inhibiting activity of B lymphocyte proliferation response induced by LPS IC50), 265 nM; in data set [2] (read-out: IC50, one way mixed lymphocyte reaction, co-cultured for 96 hours, no unit printed), 860 ± 180 nM. For the same molecule, the “IC50, B lymphocyte proliferation response induced by LPS” value in the data set on B lymphocyte was determined as 0.12 µg/mL (≈ 0.244 µM). Besides, the “IC50, proliferation response caused by mixed lymphocyte reaction” value in data set [2] (96 hours) was found to be 2.1 µg/mL (≈ 4.26 µM). For the same molecule, the “production of cytokine IFN-γ” value with IFN-γ (SM735 10−^5 Mol/L, stimulator ConA) was 322 ± 18 pg/mL; with IFN-γ (setting [6]), 103 ± 7 pg/mL; in the data set with IFN-γ (setting [7]), 144 ± 21 pg/mL; in the data set with IFN-γ (SM735 10−^6 Mol/L, stimulator ConA), 976 ± 18 pg/mL; with IFN-γ (setting [8]), 172 ± 2 pg/mL; in the data set with IFN-γ (setting [9]), 557 ± 31 pg/mL. Further, the “production of cytokine IFN-γ” value in the data set with IFN-γ (SM735 10−^7 Mol/L, stimulator ConA) was determined as 1219 ± 33 pg/mL; with IFN-γ (setting [10]), 207 ± 13 pg/mL; in the data set with IFN-γ (setting [11]) it was 768 ± 6 pg/mL. In addition, in the data set on IFN-γ (activated lymphocytes), the “production of IFN-γ (result in words)” value is given as “inhibited”. For the same molecule, the “production of cytokine IL-12” value worked out at 292 ± 26 pg/mL with IL-12 (setting [6]); 198 ± 35 pg/mL in the data set on IL-12 (setting [7]); 565 ± 18 pg/mL in the data set with IL-12 (setting [8]); 487 ± 37 pg/mL in the data set on IL-12 (setting [9]); 592 ± 33 pg/mL in the data set on IL-12 (setting [10]); 586 ± 52 pg/mL in the data set with IL-12 (setting [11]). In addition, in the data set with IL-12 (activated lymphocytes), the “production of IL-12 (result in words)” value is given as “inhibited”. Moreover, the “production of cytokine IL-2” value turned out to be 2053 ± 162 pg/mL with IL-2 (SM735 10−^5 Mol/L), 2343 ± 154 pg/mL with IL-2 (SM735 10−^6 Mol/L) and 2250 ± 77 pg/mL with IL-2 (SM735 10−^7 Mol/L). Besides, the “production of cytokine IL-6” value was found to be 522 ± 1 pg/mL in the data set with IL-6 (setting [6]); 1465 ± 35 pg/mL in the data set on IL-6 (setting [7]); 792 ± 42 pg/mL in the data set with IL-6 (setting [8]); 2663 ± 52 pg/mL in the data set on IL-6 (setting [9]); 840 ± 10 pg/mL with IL-6 (setting [10]); 2886 ± 26 pg/mL in the data set on IL-6 (setting [11]). Moreover, the “production of IL-6 (result in words)” value with IL-6 (stimulated with PMA, dose dependent) is on record as “obviously inhibited”. Moreover, the “production of TNF-α (result in words)” value in the data set on TNF-α was “obviously inhibited”. For the same molecule, in the data set on BALB/c mice [3], the “DTH reaction induced by DNFB” value is on record as “inhibited”. Besides, in the data set on BALB/c mice [4], the “antibody and complement production by mouse B cell (antibody forming cell)” value is reported as “inhibited”. Further, the “effect in rat adjuvant-induced arthritis animal model” value in the data set with SD rats was “certain preventive and therapeutic effect”.

`C[C@@H]1CC[C@H]2[C@@H](C)C(=O)O[C@@H]3O[C@@]4(C)CC[C@@H]1[C@]32OO4` [artemisinine, artemisinin] had a CC50 at 48 h in [5] of 28300 nM. Also, the IC50 with T lymphocyte (T-lymphocyte, mouse spleen cells, ConA, read-out: Inhibiting activity of T lymphocyte proliferation response induced by ConA IC50) stood at 4430 nM; with B lymphocyte (Lymphocyte, mouse spleen cells, LPS, read-out: Inhibiting activity of B lymphocyte proliferation response induced by LPS IC50), 8960 nM.
